Values after ≈ are worked out from the molar mass of the structure shown. Like-named read-outs stand apart in the source and are kept apart here. Where a SMILES comes first, the peptide text is derived from it. Where no end group is shown, it is not given here.
Experiments:
physchem = format: physicochemical
Protocol: The tests were carried out in three of the most common solvents used in biological applications such as: ultrapure water; DPBS (Dulbecco's Phosphate Buffered Saline), i.e., a saline buffer containing potassium chloride (KCl), monobasic potassium phosphate (KH2PO4), sodium chloride (NaCl) and dibasic sodium phosphate (Na2HPO4-7H2O) and finally in an organic solvent such as dimethylsulfoxide (DMSO).

S. typhimurium = format: cell-based, Salmonella typhimurium
Protocol: (§1) The evaluation of the Minimum Bactericidal Concentration (MBC), i.e., the lowest concentration of antimicrobial agent capable of 99.9% inhibition of bacterial growth on plates, was carried out as described in Bílikova et al, (2015, Peptides 68:190-196). […] It should be noted that the peptide object of the present invention is more powerful and efficient than the peptide IDR-1018-K6 (described in patent application WO2019012158) against the pathogenic bacteria L. monocytogenes and S. typhimurium, with bactericidal concentration values 4-fold and 7-fold lower, respectively, compared to those shown by IDR-1018-K6.

E. coli = format: cell-based, Escherichia coli
Protocol: as §1

S. aureus = format: cell-based, Staphylococcus aureus
Protocol: as §1

L. monocytogenes (LM2) = format: cell-based, Listeria monocytogenes; settings: LM2
Protocol: as §1

[1] = format: physicochemical
Protocol: The structural and conformational characterization of the RiLK1 peptide was assessed by investigating its secondary structure by ^1H NMR spectroscopy in H2O and in a micellar solution of SDS at a concentration of 150 mM to mimic the condition of the bacterial cell membrane.
In fact, the representative structures of the RiLK1 peptide in water show a random orientation of both polar and hydrophobic amino acid side chains.
The helical structure appears well defined and stabilized by hydrophobic interactions of amino acid residues located on the opposite face. It is important to note that, in this arrangement, all the charged side chains are iso-oriented and well prone to interact with the negatively charged surface of the SDS micelles. Furthermore, the two tryptophan residues within the RiLK1 sequence are located at an optimal distance for their mutual stacking, thus contributing to the stabilization of the helix. It should be pointed out that the ^1H NMR spectra of the peptide IDR-1018-K6 (described in patent application WO2019012158) could not be acquired in the presence of micellar solutions of SDS since it is not soluble at the concentrations required to carry out these assays. […] Therefore, it is possible to assert that the NMR analysis in the presence of SDS has shown that the RiLK1 peptide of the present invention is capable of adopting the helix conformation, whereas the IDR-1018-K6 peptide (object of patent WO2019012158) has poor solubility and a heterogeneous system not suitable for NMR structural characterization (Table 2).

[2] = tested on: Aspergillus brasiliensis (ATCC 9341); assay: antifungal activity, plate count, MFC; format: cell-based; settings: A. brasiliensis
Protocol: The antifungal activity of the RiLK1 peptide was determined against Aspergillus brasiliensis. For this purpose, a stock culture was prepared in which 10^5 CFUs of A. brasiliensis were inoculated in 10 ml of buffered peptone water. A reference strain (ATCC 9341) was used for this fungal species. The culture was incubated for 6 h at 37° C. with the RiLK1 peptide at 25 μM concentrations. At the same time, control samples were incubated without adding the peptide. 100 μl of the samples thus prepared were seeded on DG18 plates (Dichloran 18% Glycerol Agar-ISO 21527-2) and incubated at 25° C. for 7 days. All experimental conditions investigated used the plate count method to estimate the fungicidal activity of the peptide. Specifically, the numbers of colonies grown on agar plates seeded with the fungal suspensions in the absence or presence of the individual peptide dilutions were counted and compared. The standard deviations of the triplicate incubations of each plate were determined using statistical software. The evaluation of the Minimum Fungicidal Concentration (MFC), i.e., the lowest concentration of antifungal agent capable of 99.9% inhibition of fungal growth on plates, was carried out as described in Bílikova et al, (2015, Peptides 68:190-196).

[3] = tested on: Candida albicans (ATCC 14053); assay: activity against yeast, plate count, MFC; format: cell-based; settings: C. albicans
Protocol: The inhibitory activity of the RiLK1 peptide was determined against the yeast Candida albicans. A stock culture was prepared in which 10^5 CFUs of C. albicans were inoculated in 10 ml of buffered peptone water. A reference strain (ATCC 14053) was used for this species. The culture was incubated for 6 h at 37° C. with the RiLK1 peptide at 25 μM concentrations. At the same time, control samples were incubated without adding the peptide. 100 μl of the samples thus prepared were seeded on DG18 plates (Dichloran 18% Glycerol Agar-ISO 21527-2) and incubated at 25° C. for 7 days. All experimental conditions investigated used the plate count method to estimate the antimycotic activity of the peptide. Specifically, the numbers of colonies grown on agar plates seeded with the cultures in the absence or presence of the individual peptide dilutions were counted and compared. The standard deviations of the triplicate incubations of each plate were determined using statistical software. The evaluation of the Minimum Fungicidal Concentration (MFC), i.e., the lowest concentration of antifungal agent capable of 99.9% inhibition of fungal growth on plates, was carried out as described in Bílikova et al, (2015, Peptides 68:190-196).

RLKWVRIWRR-NH2 [RiLK1(L), RLKWVRIWRR]
Outcome (physchem): Dissolved
Solubility limit (physchem): 10000 µg/mL
solubility (physchem; Solubility limit): 10000 µg/mL
Outcome (physchem; pH 7.1): Dissolved
solubility (physchem; pH 7.1, Solubility limit): 10000 µg/mL

VRLIVKVRIWRR-NH2 (C-terminus assumed) [IDR-1018-K6(L)]
Outcome (physchem): Dissolved
Solubility limit (physchem): 10000 µg/mL
solubility (physchem; Solubility limit): 5000 µg/mL
Outcome (physchem; pH 7.1): Dissolved
solubility (physchem; pH 7.1, Solubility limit): 5000 µg/mL

CC[C@@H](C)[C@@H](NC(=O)[C@@H](CCCNC(=N)N)NC(=O)[C@H](NC(=O)[C@@H](Cc1c[nH]c2ccccc12)NC(=O)[C@@H](CCCCN)NC(=O)[C@@H](CC(C)C)NC(=O)[C@H](N)CCCNC(=N)N)C(C)C)C(=O)N[C@H](Cc1c[nH]c2ccccc12)C(=O)N[C@H](CCCNC(=N)N)C(=O)N[C@H](CCCNC(=N)N)C(N)=O [RiLK1(D), RLKWVRIWRR] (HELM PEPTIDE1{[dR].[dL].[dK].[dW].[dV].[dR].[dI].[dW].[dR].[dR].[am]}$$$$V2.0; N-terminus assumed)
Outcome (physchem): Dissolved
Solubility limit (physchem): 10000 µg/mL (≈ 6.81 mM)
solubility (physchem; Solubility limit): 10000 µg/mL (≈ 6.81 mM)
Outcome (physchem; pH 7.1): Dissolved
solubility (physchem; pH 7.1, Solubility limit): 10000 µg/mL (≈ 6.81 mM)

VRLIVKVRIWRR-NH2 (C-terminus assumed) [IDR-1018-K6]
MBC (S. typhimurium): 25 µM
MBC (E. coli): 2 µM
solubility (physchem): totally insoluble
solubility (physchem; Solubility limit): ≤ 5000 µg/mL
MBC (S. aureus): 15 µM
MBC (L. monocytogenes (LM2)): 8 µM
solubility [1]: 1000 µM
peptide concentration in NMR sample (solubility) ([1]; pH 4.4): insoluble
Drop Log CFU/ml ([2]; 25 μM, 6 h): 0 Log CFU/ml
post-treatment decrease in the fungal load ([2]; 25 μM, 6 h): 0 Log
antifungal activity in words ([2]; same experimental conditions): not active
Drop Log CFU/ml ([3]; 25 μM, 6 h): 1.0 Log CFU/ml
post-treatment decrease in the fungal load ([3]; 25 μM, 6 h): 1.0 Log
antimycotic activity in words ([3]; same experimental conditions): low efficiency

CC[C@@H](C)[C@@H](NC(=O)[C@@H](CCCNC(=N)N)NC(=O)[C@H](NC(=O)[C@@H](CCCCN)NC(=O)[C@H](NC(=O)[C@H](NC(=O)[C@@H](CC(C)C)NC(=O)[C@@H](CCCNC(=N)N)NC(=O)[C@H](N)C(C)C)[C@H](C)CC)C(C)C)C(C)C)C(=O)N[C@H](Cc1c[nH]c2ccccc12)C(=O)N[C@H](CCCNC(=N)N)C(=O)N[C@H](CCCNC(=N)N)C(N)=O [IDR-1018-K6 (D)] (HELM PEPTIDE1{[dV].[dR].[dL].[dI].[dV].[dK].[dV].[dR].[dI].[dW].[dR].[dR].[am]}$$$$V2.0; N-terminus and C-terminus assumed)
Solubility limit (physchem): 0 µg/mL
solubility (physchem; Solubility limit): 10000 µg/mL (≈ 6.28 mM)
Outcome (physchem; pH 7.1): NOT dissolved
Solubility limit (physchem; pH 7.1): 0 µg/mL
